From paper PMC9656955, “The Novel Class IIa Selective Histone Deacetylase Inhibitor YAK540 Is Synergistic with Bortezomib in Leukemia Cell Lines” (International Journal of Molecular Sciences, 2022) come the findings set out here.

Common to all, as to format: biochemical
In one assay the target is T1, HDAC 2 (Homo sapiens, UniProt Q92769).
T1 construct: gene HDAC2
Briefly: recombinant enzyme fluorogenic assay, Boc-Lys(Ac)-AMC substrate. As to conditions: recombinant hdac 2; read-out: YAK540 / IC50 (pIC50 ±SEM) (converted).

A further assay addresses T2, HDAC 8 (Homo sapiens, UniProt Q9BY41).
T2 construct: gene HDAC8
T2 sequence (Q9BY41 1-377): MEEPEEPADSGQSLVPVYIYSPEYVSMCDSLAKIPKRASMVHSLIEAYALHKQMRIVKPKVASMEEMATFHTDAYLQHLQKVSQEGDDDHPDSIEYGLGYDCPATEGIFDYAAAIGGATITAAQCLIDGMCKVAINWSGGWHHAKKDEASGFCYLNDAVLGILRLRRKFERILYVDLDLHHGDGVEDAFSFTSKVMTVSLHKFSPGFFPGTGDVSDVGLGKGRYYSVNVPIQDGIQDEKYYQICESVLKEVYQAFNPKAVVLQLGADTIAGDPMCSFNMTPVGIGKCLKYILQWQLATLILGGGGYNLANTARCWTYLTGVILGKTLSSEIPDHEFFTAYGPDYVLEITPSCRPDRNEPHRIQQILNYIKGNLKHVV
The assay can be described thus: recombinant enzyme fluorogenic assay, Boc-Lys-(Tfa)-AMC substrate. As to conditions: recombinant hdac 8; read-out: YAK540 / IC50 (pIC50 ±SEM) (converted).

Another assay deals with T3, HDAC 4 (Homo sapiens, UniProt P56524).
T3 construct: gene HDAC4
The assay is described as above. As to conditions: recombinant hdac 4; read-out: YAK540 / IC50 (pIC50 ±SEM) (converted).

The target of the next assay is T4, HDAC 6 (Homo sapiens, UniProt Q9UBN7).
T4 construct: gene HDAC6
T4 sequence (Q9UBN7 1-1215): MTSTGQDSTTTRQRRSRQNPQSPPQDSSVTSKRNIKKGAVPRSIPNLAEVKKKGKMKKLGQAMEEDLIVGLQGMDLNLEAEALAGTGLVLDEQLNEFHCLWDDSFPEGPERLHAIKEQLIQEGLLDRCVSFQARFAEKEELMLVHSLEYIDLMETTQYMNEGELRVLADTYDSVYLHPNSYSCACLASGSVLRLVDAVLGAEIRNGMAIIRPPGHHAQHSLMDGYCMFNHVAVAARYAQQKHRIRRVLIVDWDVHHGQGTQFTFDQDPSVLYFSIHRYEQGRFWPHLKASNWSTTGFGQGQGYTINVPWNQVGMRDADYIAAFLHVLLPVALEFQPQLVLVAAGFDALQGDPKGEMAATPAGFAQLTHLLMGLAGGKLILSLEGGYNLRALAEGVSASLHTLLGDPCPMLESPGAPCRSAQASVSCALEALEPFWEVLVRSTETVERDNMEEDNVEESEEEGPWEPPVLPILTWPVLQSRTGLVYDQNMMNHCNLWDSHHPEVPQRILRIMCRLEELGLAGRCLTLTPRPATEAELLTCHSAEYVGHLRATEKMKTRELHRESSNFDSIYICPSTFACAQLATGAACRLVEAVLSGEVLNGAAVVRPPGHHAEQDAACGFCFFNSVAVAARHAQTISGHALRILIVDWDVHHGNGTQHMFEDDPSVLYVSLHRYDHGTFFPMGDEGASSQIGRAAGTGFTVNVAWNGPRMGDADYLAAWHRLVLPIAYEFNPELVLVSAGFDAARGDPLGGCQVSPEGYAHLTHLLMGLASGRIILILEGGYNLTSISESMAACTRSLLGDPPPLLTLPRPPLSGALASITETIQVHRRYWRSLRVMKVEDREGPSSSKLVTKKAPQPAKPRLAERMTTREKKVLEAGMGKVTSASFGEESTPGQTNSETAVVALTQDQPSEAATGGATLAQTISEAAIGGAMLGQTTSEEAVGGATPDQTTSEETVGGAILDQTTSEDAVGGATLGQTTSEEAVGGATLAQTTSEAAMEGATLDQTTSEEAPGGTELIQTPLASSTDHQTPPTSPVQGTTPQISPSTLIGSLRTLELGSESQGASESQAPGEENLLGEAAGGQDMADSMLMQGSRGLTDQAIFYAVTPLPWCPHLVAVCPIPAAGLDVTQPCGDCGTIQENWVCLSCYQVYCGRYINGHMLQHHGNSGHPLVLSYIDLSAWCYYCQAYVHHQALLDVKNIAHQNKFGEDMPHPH
The assay can be described thus: recombinant enzyme fluorogenic assay, Boc-Lys(Ac)-AMC substrate. The conditions noted are these: recombinant hdac 6; read-out: YAK540 / IC50 (pIC50 ±SEM) (converted).

T3 sequence (P56524 whole entry): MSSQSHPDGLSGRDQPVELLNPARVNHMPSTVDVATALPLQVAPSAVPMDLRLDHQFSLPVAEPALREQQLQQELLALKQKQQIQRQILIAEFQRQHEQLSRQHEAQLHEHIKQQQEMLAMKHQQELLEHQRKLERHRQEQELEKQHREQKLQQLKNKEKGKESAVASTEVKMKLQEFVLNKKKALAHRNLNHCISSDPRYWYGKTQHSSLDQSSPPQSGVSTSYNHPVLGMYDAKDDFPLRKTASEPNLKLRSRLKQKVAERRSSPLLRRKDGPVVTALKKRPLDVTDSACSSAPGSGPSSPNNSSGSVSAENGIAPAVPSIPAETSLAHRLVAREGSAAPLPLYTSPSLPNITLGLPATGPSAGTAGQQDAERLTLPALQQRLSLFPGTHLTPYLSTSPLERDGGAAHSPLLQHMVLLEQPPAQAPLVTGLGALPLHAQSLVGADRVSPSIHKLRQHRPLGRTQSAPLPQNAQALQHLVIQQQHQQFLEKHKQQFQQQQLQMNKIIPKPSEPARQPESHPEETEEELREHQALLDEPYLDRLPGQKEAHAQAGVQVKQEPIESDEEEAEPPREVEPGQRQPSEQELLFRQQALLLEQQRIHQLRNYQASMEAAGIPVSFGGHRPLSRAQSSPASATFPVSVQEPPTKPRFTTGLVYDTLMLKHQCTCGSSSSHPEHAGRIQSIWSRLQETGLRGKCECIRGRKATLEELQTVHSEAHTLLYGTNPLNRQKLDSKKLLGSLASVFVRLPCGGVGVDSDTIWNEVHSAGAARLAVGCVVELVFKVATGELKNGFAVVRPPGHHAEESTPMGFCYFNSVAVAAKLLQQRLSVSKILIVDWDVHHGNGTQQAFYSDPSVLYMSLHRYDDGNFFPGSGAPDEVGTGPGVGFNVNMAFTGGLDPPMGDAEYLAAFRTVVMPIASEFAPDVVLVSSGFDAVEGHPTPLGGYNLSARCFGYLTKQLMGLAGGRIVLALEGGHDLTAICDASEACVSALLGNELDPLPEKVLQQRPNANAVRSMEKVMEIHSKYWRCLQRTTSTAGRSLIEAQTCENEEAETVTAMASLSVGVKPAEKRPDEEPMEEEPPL
T1 sequence (Q92769 whole entry): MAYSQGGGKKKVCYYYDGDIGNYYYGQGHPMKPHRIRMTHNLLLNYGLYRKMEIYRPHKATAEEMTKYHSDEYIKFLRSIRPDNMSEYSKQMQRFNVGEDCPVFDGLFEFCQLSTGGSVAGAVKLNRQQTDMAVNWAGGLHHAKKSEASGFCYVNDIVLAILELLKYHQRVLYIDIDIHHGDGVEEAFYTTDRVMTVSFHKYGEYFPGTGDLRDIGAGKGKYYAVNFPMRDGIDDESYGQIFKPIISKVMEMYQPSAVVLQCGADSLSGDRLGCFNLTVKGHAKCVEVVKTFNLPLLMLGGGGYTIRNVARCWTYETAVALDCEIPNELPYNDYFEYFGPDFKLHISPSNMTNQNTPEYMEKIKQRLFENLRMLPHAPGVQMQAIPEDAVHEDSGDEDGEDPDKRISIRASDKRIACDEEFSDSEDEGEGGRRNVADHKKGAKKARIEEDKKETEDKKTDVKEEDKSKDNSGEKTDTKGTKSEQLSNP

`O=C(NOCCN1CCCCC1)c1ccc(-c2noc(C(F)(F)F)n2)cc1` [YAK540]: the IC50 at HDAC 2 was 30.2 µM; at HDAC 8 it was 9.39 µM; on HDAC 4 it was 114 nM; on HDAC 6 it was 11.4 µM.
